Assay results published in PMC11653257, “Organometallic Half-Sandwich Complexes of 8-Hydroxyquinoline-Derived Mannich Bases with Enhanced Solubility: Targeting Multidrug Resistant Cancer” (Inorganic Chemistry, 2024).
Converted amounts (≈) assume the structure as drawn. Where two headings read alike, the source gives them in different places.

Assays:
MES-SA [1] = details: monoculture, PrestoBlue; ref SI3; cited from earlier work
[2] = pKa of the ligands by UV–vis titration; assay type: physicochemical; details: for pKa: 0.20 M KNO3, UV–vis, I = 0.20 M KNO3, 10 equiv. EDTA
Method: (§1) Physico-chemical properties such as aqueous solubility, lipophilicity, and the actual protonation state at a given pH are known to influence the pharmacokinetic behavior of a drug.
(§2) An Agilent Cary 8454 diode array spectrophotometer was utilized to obtain UV–vis spectra in the wavelength range 190–1100 nm. The path length (l) was 1 or 2 cm in most cases (the actual l is always indicated in the legends of the figures). The concentrations of the ligands and complexes were between 36 and 100 μM. The ligands were titrated in the presence of 10 equiv of EDTA. Individual samples contained 0–37 μM HSA, 0–206 μM MIM, 0–759 μM AHA, or 0–733 μM FHA. Spectra were always background and baseline corrected. The computer program HypSpec[64] was used to obtain stability constants.

[3] = system: Escherichia coli (ATCC 25922); experiment: Antibacterial MIC, E. coli; assay type: cell-based; details: Mueller Hinton Broth, 37 °C, 18 h
Method: (§3) Escherichia coli (ATCC 25922) was used as Gram-negative strain and Staphylococcus aureus (ATCC 25923, methicillin-resistant (MRSA) ATCC 43300) strains were applied as Gram-positive bacterial cultures in the experiments. MIC values of the compounds were determined in 96-well plates based on the Clinical and Laboratory Standard Institute guidelines (CLSI guidelines).[76] The stock solutions of the compounds (same as those used for cytotoxicity experiments) were diluted in 100 μL of Mueller Hinton Broth. Then, 10^–4 dilution of an overnight bacterial culture in 100 μL of medium was added to each well, with the exception of the medium control wells.

[4] = Thermodynamic aqueous solubility at pH 7.4; assay type: physicochemical; details: 10 mM HEPES buffer, thermodynamic from solid, pH 7.4 (10 mM HEPES), 25.0 °C, read-out: thermodynamic aqueous solubility S7.4
Method: The concentration of the compounds was determined by UV–vis spectrophotometry. For calibration, stock solutions of the compounds were used with known concentrations dissolved in 100% DMSO, 75% DMSO, and 50% (v/v) DMSO/buffered aqueous solutions.

A431-B1 = system: A431-B1; parameters: method as in earlier work; details: monoculture, ref SI3, cited from earlier work
MES-SA/Dx5 [5] = details: monoculture, ref SI3, cited from earlier work
[6] = target: human serum albumin (HSA), Trp214 / site I (Homo sapiens, UniProt P02768); experiment: HSA Trp214 fluorescence quenching
human serum albumin (HSA), Trp214 / site I, sequence (P02768 25-609): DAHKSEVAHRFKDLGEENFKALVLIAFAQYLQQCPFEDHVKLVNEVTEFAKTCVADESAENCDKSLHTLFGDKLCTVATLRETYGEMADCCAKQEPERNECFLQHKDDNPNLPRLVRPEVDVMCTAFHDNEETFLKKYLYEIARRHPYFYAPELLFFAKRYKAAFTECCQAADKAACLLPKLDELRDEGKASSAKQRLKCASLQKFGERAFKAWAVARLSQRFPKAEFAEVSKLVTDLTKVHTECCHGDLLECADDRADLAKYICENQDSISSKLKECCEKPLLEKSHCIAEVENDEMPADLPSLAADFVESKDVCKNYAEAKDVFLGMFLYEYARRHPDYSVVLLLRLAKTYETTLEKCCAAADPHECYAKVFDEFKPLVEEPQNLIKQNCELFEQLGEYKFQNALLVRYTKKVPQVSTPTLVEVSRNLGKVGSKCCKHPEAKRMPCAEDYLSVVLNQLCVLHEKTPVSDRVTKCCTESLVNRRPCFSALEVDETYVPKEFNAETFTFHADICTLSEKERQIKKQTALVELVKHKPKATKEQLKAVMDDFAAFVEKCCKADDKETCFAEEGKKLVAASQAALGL
Method: (§6) Next, spectrofluorometric measurements were also performed to gain insight into the binding interactions that may occur in the hydrophobic binding sites of HSA. Tryptophan (Trp214) quenching experiments were conducted for the complexes (1–4) (for complex (3) see Figure S31) and their ligands). […] To monitor the binding at site II, site marker displacement experiments were performed using dansylglycine (DG).
(§7) Fluorescence measurements were carried out on a Fluoromax (Horiba Jobin Yvon, Longjumeau, France) spectrofluorometer using a 1 cm × 1 cm quartz cuvette. […] Excitation wavelengths were 295 nm for Trp-214 quenching and 340 nm for the DG displacement studies. The calculated conditional stability constants for HSA–complex species were obtained using the computer program HypSpec.[64] Calculations always were based on data obtained from at least two independent measurements.

[7] = target: human serum albumin (HSA), site II (Homo sapiens, UniProt P02768); experiment: HSA dansylglycine (DG) site marker displacement
human serum albumin (HSA), site II, sequence (P02768 25-609): as above
Method: as §6, §7

[8] = pKa of the ligands by 1H NMR titration; assay type: physicochemical; details: 0.20 M KNO3 with 10% (v/v) D2O, I = 0.20 M KNO3, 25.0 °C, read-out: pKa (OH)
Method: as §1
(§4) Bruker Avance III HD Ascend 500 Plus instrument (Billerica, MA, USA) was used for NMR studies. ^1H NMR spectroscopic measurements were carried out with a WATERGATE water suppression pulse scheme in the presence of 10% (v/v) D2O in most cases. DSS internal standard was added to samples to obtain reference peaks. ^1H NMR titrations were carried out in the presence of 0.20 M KNO3. The computer program HypSpec[64] was used to obtain equilibrium constants.

A431 = system: A431; parameters: method as in earlier work; details: monoculture, 72 h, PrestoBlue; ref SI3; cited from earlier work
Colo320 = experiment: Cytotoxicity, Colo320; assay type: cell-based, human; details: this work
Excerpt: Supplementary Information
(11 pictures or pasted objects on this page, not shown here)

[9] = system: Staphylococcus aureus (ATCC 25923); experiment: Antibacterial MIC, S. aureus; assay type: cell-based; details: Mueller Hinton Broth, 37 °C, 18 h
Method: as §3

[10] = n-octanol/water distribution coefficient (shake-flask); assay type: physicochemical; details: pH 7.4
Method: The exchange of the coligand (H2O/Cl^–) changes the overall charge of the complex, thus affecting lipophilicity. […] The traditional shake-flask method was used to obtain distribution coefficients of the ligands as well as of the complexes in n-octanol/buffered aqueous solution (20 mM phosphate, pH = 7.4) at different chloride ion concentrations (4, 24, and 100 mM) using UV–vis spectrophotometry (Agilent Cary 8454 diode array spectrophotometer, Santa Clara, CA, USA) for the analysis. The compounds were dissolved in buffered aqueous solutions previously saturated with n-octanol. Then the aqueous and n-octanol phases were gently mixed in different volume ratios (using 1:60 for the ligands, 1:1 for the RhCp* and 1:2 for the RuCym complexes ratios of n-octanol to buffered aqueous solution volume) for 4 h, followed by phase separation. Then the UV–vis spectrum of the aqueous or n-octanol phase was recorded and compared to the reference spectrum. Stock solutions were made in the aqueous phase, and distribution coefficients (DpH) were calculated by the following equation: [drawing 3]

[11] = system: methicillin-resistant S. aureus (MRSA) ATCC 43300; experiment: Antibacterial MIC, MRSA; assay type: cell-based, Staphylococcus aureus; details: Mueller Hinton Broth, 37 °C, 18 h
Method: as §3

[12] = pKa of in situ prepared complexes by pH-potentiometry; assay type: physicochemical; details: I = 0.20 M KNO3
Excerpt: (§5) The results, shown in Table 2, indicate good agreement between the data obtained by the different methods. It should be noted that these processes show overlap in all cases, and therefore, the assignment of the pKa values to the given moieties cannot be made reliably. However, by comparing the spectral changes with those observed for HQ and other simple derivatives,[25] it can be concluded that the lower pKa likely belongs to the deprotonation of the aqua coligand.
The pH-potentiometric measurements were carried out at 25.0 ± 0.1 °C in water in the pH range between 2.0 and 11.5 and at a constant ionic strength of 0.20 M KNO3. The titrations were performed in a carbonate-free KOH solution (0.20 M). The exact concentrations of the HNO3 and KOH solutions were determined by pH-potentiometric titrations. An Orion 710A pH-meter equipped with a Metrohm combined electrode (type 6.0234.100) and a Metrohm 665 Dosimat buret were used for this purpose. […] The average water ionization constant, pKw, was determined as 13.76 ± 0.01, which is in good agreement with the literature data.[67] The initial volume of the samples was 10.0 mL. […] Samples were degassed by bubbling purified argon through them for about 10 min prior to the measurements, and the inert gas was also passed over the solutions during the titrations. The computer program Hyperquad2013[64] was utilized to establish the stoichiometry of the species and to calculate the equilibrium constants.

[13] = pKa of in situ prepared complexes by 1H NMR titration; assay type: physicochemical; details: 1:1 system, I = 0.20 M KNO3
Excerpt: as §5, §4

MES-SA [14] = experiment: Cytotoxicity in double coculture, MES-SA mCherry; details: read-out: IC50 MES-SA; double coculture with MES-SA/Dx5; 144 h; without TQ
Method: (§8) Therefore, the novel half-sandwich complexes (1–4) and their corresponding ligands were tested against a coculture of MES-SA and MES-SA/Dx5 cells expressing the fluorescent proteins mCherry or eGFP, respectively.[62]
(§9) MES-SA/B1 is a human MDR1-transfected derivative of MES-SA, and MES-SA mCherry, MES-SA/B1 mOrange, and MES-SA/Dx5 eGFP were engineered to stably express the respective fluorescent proteins previously.[62] Cells were kept in culture medium (DMEM) supplemented with 10% fetal bovine serum, 2 mM L-glutamine, 100 units/mL penicillin, and 100 μg/mL streptomycin (Thermo Fisher). One week before use, MES-SA/Dx5 eGFP cells were treated with 0.5 μM doxorubicin to ensure ABCB1/P-gp expression.
(§10) The tested compounds were dissolved in 50% (v/v) DMSO/PBS’ buffer to prepare 5–10 mM stock solutions, which were diluted in complete culture medium. Constitutive expression of the fluorescent proteins allowed multiplexing in cytotoxicity experiments.[62] […] Serial dilutions of the compounds were added 24 h after seeding. To address the effect of P-gp function, TQ was added at a nontoxic concentration (0.4 μM) 15 min before the test compounds. […] IC50 values and standard deviation were calculated from average pIC50 values from at least 3 independent measurements.

[15] = H2O/Cl– coligand exchange by UV–vis titration with chloride ions; assay type: physicochemical; details: RuCym complexes titrated at pH 6.0
Method: When the isolated complexes (1–4) are dissolved in water, their chlorido coligand can be replaced by water, or vice versa in the aqua complexes [M(arene)(HL)(H2O)]^2+, the H2O → Cl^– exchange process can take place in the presence of chloride ions. The chloride ion affinity of the complexes was also investigated by UV–vis spectrophotometry. RhCp* and RuCym complexes were titrated with chloride ions at pH 7.4 and 6.0, respectively. For this experiment, pH values were chosen at which the formation of the mixed hydroxido species is negligible. A representative spectrum series for complex (4) is shown in Figure S27, and the calculated conditional exchange constants (logK’ (H2O/Cl^–)) are given in Table 2 and in Figure S23. […] The complexes of the amino acid hybrids HQCl-D-Pro and HQCl-D-hPro have lower logK’ (H2O/Cl^–) constants most likely due to the repulsive effect of the nearby COO^– group.[26]

[16] = pKa of in situ prepared complexes by UV–vis titration; assay type: physicochemical; details: 1:1 system, absence of chloride, I = 0.20 M KNO3
Excerpt: The UV–vis spectra of the complexes prepared in situ were then followed at different pH values in the absence of chloride ions. No spectral changes were observed between pH = 2–6.3 (RuCym) or 7.5 (RhCp*), indicating high solution stability in both cases; however, the changes were significant in the basic pH range (Figure S22). In the case of RuCym complexes, two overlapping processes associated with the deprotonation of the coordinated water molecule and the noncoordinated Npyr/pipH^+ moiety were observed. […] The pKa values determined for these processes are shown in Table 2 and Figure S23 together with the values obtained for complexes formed with the amino acid hybrids HQCl-D-Pro and HQCl-D-hPro (Chart 2) for comparison.[26]
as §2

MES-SA/Dx5 [17] = experiment: Cytotoxicity in double coculture, MES-SA/Dx5 eGFP; details: for SR = IC50 (MES-SA)/IC50 (MES-SA/Dx5): double coculture
Method: as §8, §9, §10

[18] = pH 7.4, based on the pKa values

In the case of `Oc1c(CN2CCCC2)cc(Cl)c2cccnc12` [HQCl-pyr, 5-chloro-7-(pyrrolidin-1-ylmethyl)quinolin-8-ol], the IC50 (MES-SA [1]) is listed as 3.46 ± 0.51 µM, the pKa ([2]; read-out: pKa (Npyr/pipH+)) is listed as 11.36 ± 0.1 and the pKa ([2]; read-out: pKa (NqH+)) is listed as under 2. For the same compound, the pKa ([2]; read-out: pKa (OH)) was 7.53 ± 0.05, the “fraction of H2L+” value [2, 18] was 51% and the “fraction of HL” value [2, 18] was 49%. The MIC ([3]; Escherichia coli, ATCC25922) was 50 µM (≈ 13.1 µg/mL), the solubility thermodynamic [4] was 516 ± 2 µM (≈ 136 µg/mL) and the IC50 (A431-B1; 72 h, PrestoBlue) was 1970 ± 250 nM. For the same compound, the “SR (A431 / A431-B1)” value (A431-B1) was 3.79, the IC50 (MES-SA/Dx5 [5]; PrestoBlue) was 300 ± 60 nM and the “SR (MES-SA / MES-SA/Dx5)” value (MES-SA/Dx5 [5]; + 1 µM TQ) was 1.35. For the same compound, the “SR (MES-SA / MES-SA/Dx5)” value (MES-SA/Dx5 [5]) was 11.53, the Kd [6] was 25.1 µM and the Kd [7] was 12.6 µM. For the same compound, the pKa [8] was 7.65 ± 0.02, the IC50 (A431) was 7.45 ± 0.15 µM and the “SR (Colo205 / Colo320)” value (Colo320) was 2.0. The MIC ([9]; Staphylococcus aureus, ATCC25923) was 50 µM (≈ 13.1 µg/mL), the logD at 4 h ([10]; n-octanol/buffered aqueous solution, n-octanol/H2O, read-out: log D7.4) was 1.83 and the MIC ([11]; Staphylococcus aureus) was 50 µM (≈ 13.1 µg/mL).
With [RuCym(HQCl-Pip)Cl]Cl [(4)] the “pKa (H2O)” value [12] was 8.43 ± 0.08, the “pKa (Npyr/pipH+)” value [12] was 10.07 ± 0.07 and the MIC [3] was over 100 µM. For the same compound, the “pKa (H2O)” value [13] was 8.50 ± 0.02, the “pKa (Npyr/pipH+)” value [13] was 10.19 ± 0.02 and the IC50 (MES-SA [14]) was 3.46 µM. For the same compound, the “logK’(quenching)” value ([6]; 1 μM HSA, λEX = 295 nm (Trp-214), pH 7.4 (PBS’), […], 24 h) was 5.4 ± 0.2, the “logK’(DG)” value ([7]; cHSA = cDG = 1 μM, λEX = 335 nm (DG), pH 7.4 (PBS’), […], 24 h) was 5.3 ± 0.1 and the “logK’ (H2O/Cl–)” value [15] was 1.78 ± 0.02. The “pKa (H2O)” value [16] was 8.39 ± 0.10, the “pKa (Npyr/pipH+)” value [16] was 10.06 ± 0.05 and the MIC [9] was over 100 µM. For the same compound, the logD7.4 ([10]; c(Cl–) = 4 mM) was “+0.35 ± 0.02”, the logD7.4 ([10]; c(Cl–) = 24 mM) was “+0.72 ± 0.02” and the logD7.4 ([10]; c(Cl–) = 100 mM) was “+0.89 ± 0.02”. For the same compound, the “SR = IC50 (MES-SA)/IC50 (MES-SA/Dx5)” value (MES-SA/Dx5 [17]; + 0.4 μM tariquidar (TQ)) was 0.2, the “SR = IC50 (MES-SA)/IC50 (MES-SA/Dx5)” value (MES-SA/Dx5 [17]; without TQ) was 1.8 and the IC50 (MES-SA/Dx5 [17]; read-out: IC50 MES-SA/Dx5, double coculture with MES-SA, 144 h, without TQ) was 1920 nM. The MIC [11] was over 100 µM.
